The subject of one assay is Zucker fa/fa male rats. As to the kind of experiment: Zucker fa/fa Rat Model Assay. The conditions noted are these: dosed orally once a day for 4 days, blood collected at day 5. Type of assay: in vivo. An excerpt: Zucker fa/fa is a monogenic model of frank diabetes due to a mutation on the fa gene truncating the leptin receptor and preventing its interaction with its peptide hormone. This mutation results in a hyperphagic phenotype and the rodent develops obesity, hyperlipidemia, fasting hyperglycemia and insulin resistance. Zucker fa/fa male rats were received at four weeks of age and allowed to acclimate for one week. At five weeks of age the animals were single housed in cages in a temperature-controlled room with 12-hour light/dark cycle. The rats were allowed ad libitum access to water and food and throughout the study were maintained on a Purina 5008 diet. Animals were sorted based primarily on fed insulin levels and circulating triglycerides. Animals were dosed orally once a day in the morning for 4 days. The vehicle used was either 20% HPβCD (Hydroxypropyl Beta Cyclodextrin) or 15% Vitamin E/30% PEG-400 (Polyethylene Glycol 400). Fed insulin and triglycerides were measured using blood collected from the tail vein at day 5. Serum plasma samples were prepared by centrifugation in EDTA (Ethylenediaminetetraacetic acid) containing tubes, transferred into 96 well plates and stored at −80° C.

Assay [1] addresses T1, ERR1 (also known as ERR-α or ERR-1) (Homo sapiens, UniProt P11474).
T1 sequence (P11474 193-421 limits assumed): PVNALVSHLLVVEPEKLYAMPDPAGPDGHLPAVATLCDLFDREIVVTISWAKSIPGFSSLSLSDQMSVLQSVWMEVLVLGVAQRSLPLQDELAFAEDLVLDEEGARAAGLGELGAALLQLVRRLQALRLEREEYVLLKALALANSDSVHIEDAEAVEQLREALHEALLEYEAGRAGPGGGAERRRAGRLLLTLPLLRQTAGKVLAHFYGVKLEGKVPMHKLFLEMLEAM
Put plainly: TR-FRET assay (disruption of co-activator peptide binding). The settings on record: 6His-tagged ERR1LBD, GST-hSRC2 co-activator peptide; average of 3 independent experiments. Type of assay: biochemical. In a few lines: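 His6-ERR1 LBD (6 nM) with GST-SRC-2 peptide (6 nM), anti-GST Eu cryptate (30 nM) and anti-His XL665 (7.5 nM) in Tris pH 8/KCl/DTT/BSA buffer, equilibrated 4-18 h at 25 °C. Ex 340, em 615/665 nm; hyperbolic dose-response fit, mean of 3 experiments.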
For orientation: Time-resolved FRET reads energy transfer from a long-lived donor to a nearby acceptor.

By EC50 is commonly meant the concentration that produces a half-maximal response. As for `CN(C1=NC(=O)/C(=C/c2ccc3c(cnn3Cc3ccc(Cl)cc3C(F)(F)F)c2)S1)[C@@H](CO)C(=O)O` [Compound 15, 2S-({5-[1-(4-Chloro-2-trifluoromethyl-benzyl)-1H-indazol-5-ylmethylene]-4-oxo-4,5-dihydro-thiazol-2-yl}-methyl-amino)-3-hydroxy-propionic acid], in the assay on Zucker fa/fa male rats, the “% Lowering Fed Insulin Levels” value is listed as 40% and the “% Lowering Fed Triglyceride Levels” value is on record as 41%. This compound displayed an EC50 in assay [1] of 23 nM.

Consider `CN1CCC(N(C)C2=NC(=O)/C(=C/c3ccc4c(cnn4Cc4ccc(C(F)(F)F)cc4C(F)(F)F)c3)S2)CC1` [Compound 20, 5-[1-(2,4-Bis-trifluoromethyl-benzyl)-1H-indazol-5-ylmethylene]-2-[methyl-(1-methyl-piperidin-4-yl)-amino]-thiazol-4-one], for which, in the assay with Zucker fa/fa male rats, the “% Lowering Fed Insulin Levels” value was 40% and the “% Lowering Fed Triglyceride Levels” value is on record as 34%. The same compound came in with a concentration for a half-maximal effect (EC50) in assay [1] of 18 nM.

For `CN(C1=NC(=O)/C(=C/c2ccc3c(cnn3Cc3ccc(C(F)(F)F)cc3C(F)(F)F)c2)S1)C1CCN(CC(N)=O)CC1` [Compound 52, 2-(4-{[-5-({1-[2,4-Bis(trifluoromethyl)benzyl]-1H-indazol-5-yl}methylidene)-4-oxo-4,5-dihydro-1,3-thiazol-2-yl](methyl)amino}piperidin-1-yl)acetamide], in the assay on Zucker fa/fa male rats, the “% Lowering Fed Insulin Levels” value was found to be 30% and the “% Lowering Fed Triglyceride Levels” value is 38%. This compound gave an EC50 in assay [1] of 13 nM.

Values taken from patent US8426604B2 (Janssen Pharmaceutica NV, priority 2010, dated 2013).
